Laboratory results reported in PubChem BioAssay AID2060509 (Molecular Pharmacology Branch, DTP, NCI, 2025).

System: 485176-168-R4-J1-PDC spheroids with HUVEC/MSC, viability
Assay: Anticancer human tumor 485176-168-R4-J1-PDC patient-derived pancreatic adenocarcinoma cell line growth inhibition [GQUAD]
Settings: for IC50: curve of first compound; for viability, T/C: stronger effect = lower value
How it was run: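 Viability of tumor cells grown as complex spheroids with endothelial and stromal cells, exposed to drug combinations. Top concentration at or near clinical Cmax (else 10 microM), diluted in half-log increments.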

[1] = second compound 0.0316 µM, first compound 0.0316 µM
[2] = second compound 0.0316 µM, first compound 0.1 µM
[3] = second compound 0.0316 µM, first compound 0.316 µM
[4] = second compound 0.0316 µM, first compound 1 µM
[5] = second compound 0.0316 µM, first compound 3.16 µM
[6] = second compound 0.0316 µM, first compound 10 µM
[7] = second compound 0.1 µM, first compound 0.0316 µM
[8] = second compound 0.1 µM, first compound 0.1 µM
[9] = second compound 0.1 µM, first compound 0.316 µM
[10] = second compound 0.1 µM, first compound 1 µM
[11] = second compound 0.1 µM, first compound 3.16 µM
[12] = second compound 0.1 µM, first compound 10 µM
[13] = second compound 0.316 µM, first compound 0.0316 µM
[14] = second compound 0.316 µM, first compound 0.1 µM
[15] = second compound 0.316 µM, first compound 0.316 µM
[16] = second compound 0.316 µM, first compound 1 µM
[17] = second compound 0.316 µM, first compound 3.16 µM
[18] = second compound 0.316 µM, first compound 10 µM
[19] = second compound 1 µM, first compound 0.0316 µM
[20] = second compound 1 µM, first compound 0.1 µM
[21] = second compound 1 µM, first compound 0.316 µM
[22] = second compound 1 µM, first compound 1 µM
[23] = second compound 1 µM, first compound 3.16 µM
[24] = second compound 1 µM, first compound 10 µM
[25] = second compound 3.16 µM, first compound 0.0316 µM
[26] = second compound 3.16 µM, first compound 0.1 µM
[27] = second compound 3.16 µM, first compound 0.316 µM
[28] = second compound 3.16 µM, first compound 1 µM
[29] = second compound 3.16 µM, first compound 3.16 µM
[30] = second compound 3.16 µM, first compound 10 µM
[31] = second compound 10 µM, first compound 0.0316 µM
[32] = second compound 10 µM, first compound 0.1 µM
[33] = second compound 10 µM, first compound 0.316 µM
[34] = second compound 10 µM, first compound 1 µM
[35] = second compound 10 µM, first compound 3.16 µM
[36] = second compound 10 µM, first compound 10 µM
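Also: spheroids exposed to compounds for seven days before readout.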
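For viability, T/C in this document: percent viability relative to DMSO vehicle control wells as 100%.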

## C#Cc1c(F)ccc2cc(O)cc(-c3ncc4c(N5CC6CCC(C5)N6)nc(OCC56CCCN5CC(F)C6)nc4c3F)c12 (stereo unspecified) + CN(C)c1ccc(Nc2c3ccc(NC(=O)CCN4CCCC4)cc3nc3cc(NC(=O)CCN4CCCC4)ccc23)cc1
Second compound 0.0316 µM
  IC50: > 10 µM
Second compound 0.1 µM
  IC50: > 10 µM
Second compound 0.316 µM
  IC50: > 10 µM
Second compound 1 µM
  IC50: > 10 µM
Second compound 3.16 µM
  IC50: > 10 µM
Second compound 10 µM
  IC50: > 10 µM
[1]
  viability, T/C: 119%
[2]
  viability, T/C: 106%
[3]
  viability, T/C: 103%
[4]
  viability, T/C: 106%
[5]
  viability, T/C: 95.6%
[6]
  viability, T/C: 98.2%
[7]
  viability, T/C: 112%
[8]
  viability, T/C: 99.5%
[9]
  viability, T/C: 91.9%
[10]
  viability, T/C: 97.9%
[11]
  viability, T/C: 120%
[12]
  viability, T/C: 116%
[13]
  viability, T/C: 97.4%
[14]
  viability, T/C: 81.8%
[15]
  viability, T/C: 105%
[16]
  viability, T/C: 102%
[17]
  viability, T/C: 95.5%
[18]
  viability, T/C: 85.5%
[19]
  viability, T/C: 91.6%
[20]
  viability, T/C: 90.8%
[21]
  viability, T/C: 99.3%
[22]
  viability, T/C: 111%
[23]
  viability, T/C: 94.6%
[24]
  viability, T/C: 94.3%
[25]
  viability, T/C: 113%
[26]
  viability, T/C: 96.2%
[27]
  viability, T/C: 103%
[28]
  viability, T/C: 94.4%
[29]
  viability, T/C: 99.4%
[30]
  viability, T/C: 78.2%
[31]
  viability, T/C: 89.8%
[32]
  viability, T/C: 104%
[33]
  viability, T/C: 82.5%
[34]
  viability, T/C: 91.9%
[35]
  viability, T/C: 70.8%
[36]
  viability, T/C: 54.3%

## CC(=O)O[C@H]1C(=O)[C@@]2(C)[C@H]([C@H](OC(=O)c3ccccc3)[C@]3(O)C[C@H](OC(=O)[C@H](O)[C@@H](NC(=O)c4ccccc4)c4ccccc4)C(C)=C1C3(C)C)[C@]1(OC(C)=O)CO[C@@H]1C[C@@H]2O + CN(C)c1ccc(Nc2c3ccc(NC(=O)CCN4CCCC4)cc3nc3cc(NC(=O)CCN4CCCC4)ccc23)cc1
Second compound 0.0316 µM
  IC50: < 0.0316 µM
Second compound 0.1 µM
  IC50: < 0.0316 µM
Second compound 0.316 µM
  IC50: < 0.0316 µM
Second compound 1 µM
  IC50: < 0.0316 µM
Second compound 3.16 µM
  IC50: < 0.0316 µM
Second compound 10 µM
  IC50: < 0.0316 µM
[1]
  viability, T/C: 34.3%
[2]
  viability, T/C: 14.3%
[3]
  viability, T/C: 14.3%
[4]
  viability, T/C: 11.6%
[5]
  viability, T/C: 11%
[6]
  viability, T/C: 14.1%
[7]
  viability, T/C: 31.9%
[8]
  viability, T/C: 15%
[9]
  viability, T/C: 14.1%
[10]
  viability, T/C: 14.9%
[11]
  viability, T/C: 12%
[12]
  viability, T/C: 11.3%
[13]
  viability, T/C: 33.3%
[14]
  viability, T/C: 15.6%
[15]
  viability, T/C: 12.9%
[16]
  viability, T/C: 13.7%
[17]
  viability, T/C: 11.5%
[18]
  viability, T/C: 10.9%
[19]
  viability, T/C: 31%
[20]
  viability, T/C: 13.3%
[21]
  viability, T/C: 12.2%
[22]
  viability, T/C: 14%
[23]
  viability, T/C: 11.5%
[24]
  viability, T/C: 9.76%
[25]
  viability, T/C: 36.9%
[26]
  viability, T/C: 11.3%
[27]
  viability, T/C: 16.1%
[28]
  viability, T/C: 13.6%
[29]
  viability, T/C: 12.5%
[30]
  viability, T/C: 11.3%
[31]
  viability, T/C: 28.3%
[32]
  viability, T/C: 12.4%
[33]
  viability, T/C: 13.1%
[34]
  viability, T/C: 11.5%
[35]
  viability, T/C: 10.6%
[36]
  viability, T/C: 12%

## CCCS(=O)(=O)Nc1ccc(F)c(C(=O)c2c[nH]c3ncc(-c4ccc(Cl)cc4)cc23)c1F + CN(C)c1ccc(Nc2c3ccc(NC(=O)CCN4CCCC4)cc3nc3cc(NC(=O)CCN4CCCC4)ccc23)cc1
Second compound 0.0316 µM
  IC50: > 10 µM
Second compound 0.1 µM
  IC50: > 10 µM
Second compound 0.316 µM
  IC50: > 10 µM
Second compound 1 µM
  IC50: > 10 µM
Second compound 3.16 µM
  IC50: > 10 µM
Second compound 10 µM
  IC50: 6.5 µM
[1]
  viability, T/C: 87.4%
[2]
  viability, T/C: 81.9%
[3]
  viability, T/C: 91.6%
[4]
  viability, T/C: 86.4%
[5]
  viability, T/C: 86.3%
[6]
  viability, T/C: 70.1%
[7]
  viability, T/C: 100%
[8]
  viability, T/C: 99%
[9]
  viability, T/C: 83.2%
[10]
  viability, T/C: 73.6%
[11]
  viability, T/C: 94.3%
[12]
  viability, T/C: 60%
[13]
  viability, T/C: 97.5%
[14]
  viability, T/C: 95%
[15]
  viability, T/C: 91.1%
[16]
  viability, T/C: 77.2%
[17]
  viability, T/C: 90.8%
[18]
  viability, T/C: 63.7%
[19]
  viability, T/C: 76.3%
[20]
  viability, T/C: 86.8%
[21]
  viability, T/C: 105%
[22]
  viability, T/C: 94.8%
[23]
  viability, T/C: 82.5%
[24]
  viability, T/C: 65.3%
[25]
  viability, T/C: 91.8%
[26]
  viability, T/C: 87.6%
[27]
  viability, T/C: 78.8%
[28]
  viability, T/C: 81.3%
[29]
  viability, T/C: 81.2%
[30]
  viability, T/C: 51.3%
[31]
  viability, T/C: 76.6%
[32]
  viability, T/C: 83.7%
[33]
  viability, T/C: 65.4%
[34]
  viability, T/C: 70.6%
[35]
  viability, T/C: 63.3%
[36]
  viability, T/C: 42.7%
